Measured values reported in patent US9518130B2, “Use of ERBB3 inhibitors in the treatment of triple negative and basal-like breast cancers” (Merrimack Pharmaceuticals, Inc., priority 2010, dated 2016).
“And” between values parts separate entries of the source, which are not always exact repeats. Equal values may be shown once.

B1: MM-121: anti-ErbB3 monoclonal antibody comprising VH and VL sequences as shown in SEQ ID NOs: 1 and 2 (antibody, listed as Homo sapiens, V domains shown)
VH: EVQLLESGGGLVQPGGSLRLSCAASGFTFSHYVMAWVRQAPGKGLEWVSSISSSGGWTLYADSVKGRFTISRDNSKNTLYLQMNSLRAEDTAVYYCTRGLKMATIFDYWGQGTLVTVSS
VL: QSALTQPASVSGSPGQSITISCTGTSSDVGSYNVVSWYQQHPGKAPKLIIYEVSQRPSGVSNRFSGSKSGNTASLTISGLQTEDEADYYCCSYAGSSIFVIFGGGTKVTVL

What was measured:
[1] = tested on: MDA-MB-231 triple negative breast cancer xenograft model; assay: Inhibition of tumor growth in vivo by combination treatment with MM-121 and paclitaxel (Example 4); parameters: species or system Balb/c nude mice; settings: for mean tumor volumes: MM121 150 μg/mouse Q3D ip, paclitaxel 5 mg/kg; for effect on tumor growth (in words): sub-optimal doses, FIG. 3
From the text: Treatment is continued for 4 weeks. […] Results:

[2] = tested on: MDA-MB-231 triple negative breast cancer xenograft model; assay: MM-121 combination with targeted and chemotherapies in vivo (Example 5); settings: MM121 300 ug/mouse Q3D, erlotinib 50 mg/kg PO, cetuximab 2 mg/kg Q3D, paclitaxel 10 mg/kg
Description: Balb/c nude mice (female, 4-5 weeks old from Charles River lab) are implanted orthotopically with 10×10^6 cells in mammary pad. Tumors are allowed to reach average of 150 mm^3 in size before randomization into 9 groups of 8 mice, containing mice with a similar size distribution of tumors. […] Treatment is continued for 4 weeks. Tumors are measured twice weekly and tumor volume is calculated as p/6×length×width, where the width is the shorter measurement.

[3] = tested on: MDA-MB-231 human triple negative breast cancer cells; assay: MM-121 effects on MDA-MB-231 xenograft (subcutaneous flank or mammary fat pad); assay type: in vivo, Balb/c nude mice; settings: MM-121 600 ug per mouse IP every 3 days; FIG. 2
Description: Balb/c nude mice are injected under general anesthesia with 10^7 MDA-MB-231 human triple negative breast cancer cells (ATCC) either subcutaneously in the flank or into the mammary fat pad. Mice with established tumors (i.e., after 7-10 days of tumor growth following injection of cells) are then treated IP with either PBS or MM-121 every 3 days with 600 ug MM-121 per mouse as described in Example 1. Tumor volume is measured twice a week as described in Example 1.

[4] = tested on: triple negative human mammary carcinoma xenograft MAXF449; assay: Anti-tumor efficacy of MM-121 monotherapy in MAXF449 xenograft; assay type: in vivo, NMRI nude mice; settings: MM-121 600 μg per mouse IP every three days
Description: An analysis of the anti-tumor efficacy and tolerability of MM-121 treatment of tumor-bearing mice is carried out using triple negative human mammary carcinoma xenograft MAXF449 (ONCOTEST GmbH, Frieburg, Germany) in NMRI nude mice. MAXF449 is a Human tumor explant (histologically described upon explant as solid invasive ductal, and poorly defined) established via subcutaneous injection in serial passages in nude mice. The MAXF449 cells used in these experiments have been passaged 22 times. NMRI nude mice are obtained from Taconic farms, Charles River Laboratories International, or Harlan Laboratories. […]
To investigate anti-tumor efficacy in monotherapy, MM-121 or vehicle control (100 μL) is given to tumor-bearing mice at 600 μg per mouse (MM-121 as a 6 mg/mL solution in PBS) by IP injection every three days. […] Efficacy is determined by comparing tumor growth between the antibody-treated mice and the vehicle control mice and is expressed as the experimental to control ratio of median relative tumor volumes (T/C value). […]
Mice are randomized and therapy begins when a sufficient number of individual tumors have grown to a volume of approximately 200 mm3. Tumors are measured (L×W) by digital caliper measurement and the tumor volume is calculated using the formula Pi/6 (W2×L). […]

[5] = 1st time point column (day head not given; FIG. 3 starts at 28 days following injection)
[6] = 2nd time point column (day head not given)
[7] = 3rd time point column (day head not given)
[8] = 4th time point column (day head not given)
[9] = 5th time point column (day head not given)
[10] = 6th time point column (day head not given)

| Molecule | mean tumor volumes [1, 5] [mm^3] | mean tumor volumes [1, 6] [mm^3] | mean tumor volumes [1, 7] [mm^3] | mean tumor volumes [1, 8] [mm^3] | mean tumor volumes [1, 9] [mm^3] | mean tumor volumes [1, 10] [mm^3] | effect on tumor growth (in words) [1] | mean tumor volumes ([2]; Day 28) [mm^3] | mean tumor volumes ([2]; Day 32) [mm^3] | mean tumor volumes ([2]; Day 36) [mm^3] | mean tumor volumes ([2]; Day 39) [mm^3] | mean tumor volumes ([2]; Day 43) [mm^3] | mean tumor volumes ([2]; Day 46) [mm^3] | mean tumor volumes ([2]; Day 49) [mm^3] | mean tumor volumes ([2]; Day 53) [mm^3] | effect on tumor growth (in words) [3] | effect on tumor growth (in words) ([4]; FIG. 1) | TGI (tumor growth inhibition) ([4]; MAXF449 xenograft, NMRI nude mice) |
| --- | --- | --- | --- | --- | --- | --- | --- | --- | --- | --- | --- | --- | --- | --- | --- | --- | --- | --- |
| CC(=O)O[C@H]1C(=O)[C@@]2(C)[C@H]([C@H](OC(=O)c3ccccc3)[C@]3(O)C[C@H](OC(=O)[C@H](O)[C@@H](NC(=O)c4ccccc4)c4ccccc4)C(C)=C1C3(C)C)[C@]1(OC(C)=O)CO[C@@H]1C[C@@H]2O [paclitaxel] | 97.9 | 113.5 | 144.6 | 166.2 | 178.8 | 202.2 | inhibited tumor growth | 155.2 | 167.0 | 182.4 | 216.6 | 228.1 | 247.0 | 292.6 | 383.5 |  |  |  |
| C#Cc1cccc(Nc2ncnc3cc(OCCOC)c(OCCOC)cc23)c1 [erlotinib] |  |  |  |  |  |  |  | 172.1 | 182.1 | 216.1 | 273.2 | 252.8 | 245.6 | 303.1 | 327.4 |  |  |  |
| B1 | 99.4 | 115.5 | 137.5 | 180.4 | 187.2 | 242.7 | inhibited tumor growth | 178.6 | 197.3 | 219.1 | 257.8 | 269.4 | 291.4 | 351.3 | 425.0 | stopped human triple negative breast cancer tumor growth essentially completely | inhibited or stopped tumor growth, and in some cases reduced tumor size | approximately 200% and 200% |
